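Here, GI50 denotes the concentration required for 50% inhibition of growth. TGI denotes the concentration required for complete inhibition of growth.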
What was measured:
Experiment in all cases: DTP human tumour cell line panel, 384-well format
A549 NSCLC = system: A549 NSCLC
SK-OV-3 ovarian = system: SK-OV-3 ovarian
LOX IMVI melanoma = system: LOX IMVI melanoma
HOP-62 NSCLC = system: HOP-62 NSCLC
EKVX NSCLC = system: EKVX NSCLC
RXF 393 renal = system: RXF 393 renal
HT29 colon = system: HT29 colon
OVCAR-5 ovarian = system: OVCAR-5 ovarian
NCI/ADR-RES ovarian = system: NCI/ADR-RES ovarian
NCI-H226 lung = system: NCI-H226 lung
BT-549 breast = system: BT-549 breast
UACC-62 melanoma = system: UACC-62 melanoma
SW-620 colon = system: SW-620 colon
CAKI-1 renal = system: CAKI-1 renal
SNB-19 CNS = system: SNB-19 CNS
SF-268 CNS = system: SF-268 CNS
MDA-MB-435 melanoma = system: MDA-MB-435 melanoma
SK-MEL-5 melanoma = system: SK-MEL-5 melanoma
NCI-H522 lung = system: NCI-H522 lung
TK-10 renal = system: TK-10 renal
SF-295 CNS = system: SF-295 CNS
MOLT-4 leukemia = system: MOLT-4 leukemia
SNB-75 CNS = system: SNB-75 CNS
KM12 colon = system: KM12 colon
T-47D breast = system: T-47D breast
DU-145 prostate = system: DU-145 prostate
HCT-15 colon = system: HCT-15 colon
UACC-257 melanoma = system: UACC-257 melanoma
OVCAR-3 ovarian = system: OVCAR-3 ovarian
NCI-H460 NSCLC = system: NCI-H460 NSCLC
U251 glioblastoma = system: U251 glioblastoma
MALME-3M melanoma = system: MALME-3M melanoma
CCRF-CEM leukemia = system: CCRF-CEM leukemia
MDA-MB-231 breast = system: MDA-MB-231 breast
MDA-MB-468 breast = system: MDA-MB-468 breast
A498 renal = system: A498 renal
HCT-116 colon = system: HCT-116 colon
UO-31 renal = system: UO-31 renal
SK-MEL-28 melanoma = system: SK-MEL-28 melanoma
NCI-H322M lung = system: NCI-H322M lung
PC-3 prostate = system: PC-3 prostate
HS 578T breast = system: HS 578T breast
SF-539 CNS = system: SF-539 CNS
K-562 leukemia = system: K-562 leukemia
786-0 renal = system: 786-0 renal
RPMI-8226 leukemia = system: RPMI-8226 leukemia
OVCAR-4 ovarian = system: OVCAR-4 ovarian
SN12C renal = system: SN12C renal
COLO 205 colon = system: COLO 205 colon
SK-MEL-2 melanoma = system: SK-MEL-2 melanoma
IGROV1 ovarian = system: IGROV1 ovarian
HL-60(TB) leukemia = system: HL-60(TB) leukemia

In the case of `CC[C@H](CO)Nc1nc(NCc2ccccc2)c2ncn(C(C)C)c2n1`, the GI50 (A549 NSCLC) is reported as 27.5 µM, the TGI (A549 NSCLC) is reported as greater than 100 µM and the GI50 (SK-OV-3 ovarian) is reported as 36.5 µM. It also gave a TGI (SK-OV-3 ovarian) greater than 100 µM, a GI50 (LOX IMVI melanoma) of 19.3 µM and a TGI (LOX IMVI melanoma) of 37.5 µM. The GI50 (HOP-62 NSCLC) was 21.8 µM, the TGI (HOP-62 NSCLC) was 62.2 µM and the GI50 (EKVX NSCLC) was 23 µM. For the same compound, the TGI (EKVX NSCLC) was 59.6 µM, the GI50 (RXF 393 renal) was 14.1 µM and the TGI (RXF 393 renal) was 28.2 µM. The GI50 (HT29 colon) was 20.1 µM, the TGI (HT29 colon) was 47.2 µM and the GI50 (OVCAR-5 ovarian) was 24.8 µM. The TGI (OVCAR-5 ovarian) was greater than 100 µM, the GI50 (NCI/ADR-RES ovarian) was 22.3 µM and the TGI (NCI/ADR-RES ovarian) was 75.2 µM. It also gave a GI50 (NCI-H226 lung) of 22.4 µM, a TGI (NCI-H226 lung) of 68.3 µM and a GI50 (BT-549 breast) of 15.9 µM. The TGI (BT-549 breast) was 33.6 µM, the GI50 (UACC-62 melanoma) was 13.7 µM and the TGI (UACC-62 melanoma) was 27.3 µM. It also gave a GI50 (SW-620 colon) of 29.5 µM, a TGI (SW-620 colon) of 89.9 µM and a GI50 (CAKI-1 renal) of 24 µM. For the same compound, the TGI (CAKI-1 renal) was 77.4 µM, the GI50 (SNB-19 CNS) was 26.8 µM and the TGI (SNB-19 CNS) was greater than 100 µM. For the same compound, the GI50 (SF-268 CNS) was 15.3 µM, the TGI (SF-268 CNS) was 35.6 µM and the GI50 (MDA-MB-435 melanoma) was 23.2 µM. For the same compound, the TGI (MDA-MB-435 melanoma) was 64.6 µM, the GI50 (SK-MEL-5 melanoma) was 15.4 µM and the TGI (SK-MEL-5 melanoma) was 31.8 µM. The GI50 (NCI-H522 lung) was 18.3 µM, the TGI (NCI-H522 lung) was 50.6 µM and the GI50 (TK-10 renal) was 25 µM. The TGI (TK-10 renal) was 83.6 µM, the GI50 (SF-295 CNS) was 25.2 µM and the TGI (SF-295 CNS) was 78.6 µM. For the same compound, the GI50 (MOLT-4 leukemia) was 17.3 µM, the TGI (MOLT-4 leukemia) was 32.1 µM and the GI50 (SNB-75 CNS) was 16.6 µM. For the same compound, the TGI (SNB-75 CNS) was 35.4 µM, the GI50 (KM12 colon) was 18.8 µM and the TGI (KM12 colon) was 43.6 µM. It also gave a GI50 (T-47D breast) of 24.9 µM, a TGI (T-47D breast) of 76.1 µM and a GI50 (DU-145 prostate) of 20.9 µM. It also gave a TGI (DU-145 prostate) of 56.3 µM, a GI50 (HCT-15 colon) of 19.4 µM and a TGI (HCT-15 colon) of 60.3 µM. It also gave a GI50 (UACC-257 melanoma) of 21.2 µM, a TGI (UACC-257 melanoma) of 59.5 µM and a GI50 (OVCAR-3 ovarian) of 17.2 µM. The TGI (OVCAR-3 ovarian) was 43.9 µM, the GI50 (NCI-H460 NSCLC) was 16.2 µM and the TGI (NCI-H460 NSCLC) was 31.8 µM. The GI50 (U251 glioblastoma) was 28.2 µM, the TGI (U251 glioblastoma) was greater than 100 µM and the GI50 (MALME-3M melanoma) was 24.8 µM. The TGI (MALME-3M melanoma) was 57.8 µM, the GI50 (CCRF-CEM leukemia) was 16.8 µM and the TGI (CCRF-CEM leukemia) was 33.3 µM. The GI50 (MDA-MB-231 breast) was 22.4 µM, the TGI (MDA-MB-231 breast) was 62.9 µM and the GI50 (MDA-MB-468 breast) was 19.8 µM. For the same compound, the TGI (MDA-MB-468 breast) was 37.9 µM, the GI50 (A498 renal) was 27.2 µM and the TGI (A498 renal) was 82.1 µM. It also gave a GI50 (HCT-116 colon) of 16.4 µM, a TGI (HCT-116 colon) of 35.3 µM and a GI50 (UO-31 renal) of 20.9 µM. It also gave a TGI (UO-31 renal) of 45 µM, a GI50 (SK-MEL-28 melanoma) of 16.3 µM and a TGI (SK-MEL-28 melanoma) of 36.4 µM. The GI50 (NCI-H322M lung) was 19.1 µM, the TGI (NCI-H322M lung) was 49.9 µM and the GI50 (PC-3 prostate) was 21 µM. It also gave a TGI (PC-3 prostate) of 56.1 µM, a GI50 (HS 578T breast) of 15.2 µM and a TGI (HS 578T breast) of 32.3 µM. The GI50 (SF-539 CNS) was 19.1 µM, the TGI (SF-539 CNS) was 40.3 µM and the GI50 (K-562 leukemia) was 36.1 µM. It also gave a TGI (K-562 leukemia) greater than 100 µM, a GI50 ([…]-0 renal) of 22.7 µM and a TGI (786-0 renal) of 61.5 µM. For the same compound, the GI50 (RPMI-8226 leukemia) was 17 µM, the TGI (RPMI-8226 leukemia) was 31.6 µM and the GI50 (OVCAR-4 ovarian) was 32 µM. It also gave a TGI (OVCAR-4 ovarian) greater than 100 µM, a GI50 (SN12C renal) of 21.1 µM and a TGI (SN12C renal) of 52.1 µM. For the same compound, the GI50 (COLO 205 colon) was 21.3 µM, the TGI (COLO 205 colon) was 52.8 µM and the GI50 (SK-MEL-2 melanoma) was 36.7 µM. The TGI (SK-MEL-2 melanoma) was 63.6 µM, the GI50 (IGROV1 ovarian) was 26.5 µM and the TGI (IGROV1 ovarian) was 95.8 µM. It also gave a GI50 (HL-60(TB) leukemia) of 14.8 µM and a TGI (HL-60(TB) leukemia) of 28.1 µM.

Source: PubChem BioAssay (NCI)
